Data reported in patent US8026275B2 (priority 2005, dated 2011).
Read-outs that look alike come from different tables or passages of the source.

Key:
in vivo [1] = details: rat
Excerpt: Time plasma concentration curve was processed using a two compartment PK model supported by WinNonlin.

GABAA Cl channel [2] = assay type: binding, bovine; details: read-out: IC50 of binding to GABA Cl channel
GABAA Cl channel [3] = system: T1, GABAA Cl channel; assay type: binding, bovine; details: for Kd: read-out: binding constant (KD), inhibition of TBOB binding to GABAA receptor
T1 construct: other: determined graphically, increasing concentr; other: 10^-4M, bovine hippocampus

rats [4] = test: Anesthetic activity in vivo, time to recovery of righting reflex; parameters: species or system rat; details: for duration of anesthesia (time to recovery of righting reflex): tail vein injection in DMSO, 28 μmol/kg (5 mg/kg for 2,6-diisopropyl phenol); for toxicity compared with 2,6-diisopropyl phenol: equimolar dose
Description: Drugs solubilized in DMSO were administered to rats by tail vein injection (N=5 rats per group). […] GABAA binding activity in vitro was performed as described in Example 27.

[5] = Dose escalation in rats: mortality and anesthetic activity; details: rat, in vivo
Description: (§1) Drugs solubilized in DMSO were administered to rats (5 rats per group). Anesthetic activity in vivo was determined as time to recovery of righting reflex. […] In order to adjust for the differences in molecular weight between the two compounds, umol/kg dose was used.

rats [6] = test: as above; details: rats; for LD10: in DMSO, calculated from mortality curves
Description: as §1

[7] = rat, intravenously via jugular vein cannula, in DMSO, blood
[8] = dissolved in DMSO
GABAA agonist site = details: 10^-4M, bovine hippocampus
GABAA alpha-1 site = details: 10^-4M, bovine hippocampus
GABAA alpha 2 site = details: 10^-4M, bovine hippocampus
GABAA alpha-6 site = details: 10^-4M, bovine hippocampus
in vivo [9] = details: rat, plasma, intravenous, 5 mg/kg
[10] = Total Antioxidant Status Assay (CalBiochem), inhibition of ABTS oxidation; assay type: biochemical; details: read-out: Antioxidant activity (IC50, 50% suppression of ABTS+ absorbance at 600 nm)
Excerpt: The assay used relies on the ability of antioxidants in the sample to inhibit the oxidation of ABTS (2,2'-Azino-di-[3-ethylbenzthiazoline sulphonate]) to ABTS+ by metmyoglobin (a peroxidase). The amount of ABTS+ produced was monitored at 600 nm. Under the reaction conditions used, the antioxidants in the sample suppress the absorbance at 600 nm to a degree which is proportional to their concentration and antioxidant activity.

[11] = 5 mg/kg intravenously in DMSO, plasma
[12] = determined graphically, increasing concentrations

## CC(C)c1cccc(C(C)C)c1O [2,6-diisopropyl phenol]
In vivo [1]; [11]
  V1: 15 L/kg
  V2: 58 L/kg
In vivo [1]; in vivo, iv, 5 mg/kg
  AUC: 0.4 µg·h/mL
  Cmax: 0.3 µg/mL
  Vd: 73 L/kg
  clearance: 12 L/h/kg
GABAA Cl channel [2]
  IC50: 96 µM
GABAA Cl channel [3]
  inhibition of TBOB binding to the chloride channel: inhibited the binding of TBOB
  Kd: 5.74 µM
Rats [4]
  duration of anesthesia (time to recovery of righting reflex): 20 min
[5]
  LD50: 45.3 µmol/kg
Rats [6]
  time asleep at LD10: 0.35 h
  LD10: 28 µmol/kg
[7]
  AUC: 0.4 µg·h/mL
  CL: 11.7 L/h/kg
  Cmax: 0.3 µg/mL
  Vc (volume of the central compartment): 15.0 L/kg
  Vt (volume of the tissue compartment): 58.0 L/kg
[8]
  time the rat was put to sleep: 20 min
GABAA agonist site
  inhibition of the agonist site: No significant inhibition
GABAA alpha-1 site
  inhibition of the alpha 1 site: No significant inhibition
GABAA alpha 2 site
  inhibition of the alpha 2 site: No significant inhibition
GABAA alpha-6 site
  inhibition of the alpha 6 site: No significant inhibition
In vivo [9]
  concentration at 20 min: 0.75 µM

## CC(C)c1cc(C(=O)c2ccc(F)cc2)cc(C(C)C)c1O [Compound 1, (4-fluorophenyl)-(4-hydroxy-3,5-diisopropylphenyl)methanone]
[10]
  IC50: > 1000 µM

## CC(C)c1cc(C(=O)c2ccc(C(F)(F)F)cc2)cc(C(C)C)c1O [Compound 2]
[10]
  IC50: > 1000 µM
GABAA Cl channel [3]; [12]
  Kd: 0.42 µM
Rats [4]
  toxicity compared with 2,6-diisopropyl phenol: did not have toxicity above that of 2,6-diisopropyl phenol
  duration of anesthesia (time to recovery of righting reflex): 75 to 92 min
[5]
  LD50: 62.1 µmol/kg
Rats [6]
  time asleep at LD10: 1.73 h
  LD10: 29 µmol/kg
Rats [6]; dose escalation
  anesthetic activity compared with 2,6-diisopropyl phenol: better anesthetic activity than 2,6-diisopropyl phenol at all dose levels
[7]
  AUC: 127 µg·h/mL
  CL: 0.08 L/h/kg
  Cmax: 283 µg/mL
  Vc (volume of the central compartment): 0.04 L/kg
  Vss (volume distribution at steady state): 5.3 L/kg
  Vt (volume of the tissue compartment): 5.2 L/kg

## CC(C)c1cc(C(=O)c2ccc([N+](=O)[O-])cc2)cc(C(C)C)c1O [Compound 3, (4-hydroxy-3,5-diisopropylphenyl)-(4-nitrophenyl)methanone]
[10]
  IC50: > 1000 µM

## CC(C)c1cc(C(=O)c2ccc(C(F)(F)F)c(F)c2)cc(C(C)C)c1O [Compound 4, (3-fluoro-4-(trifluoromethyl)phenyl)-(4-hydroxy-3,5-diisopropylphenyl)methanone]
[10]
  IC50: > 1000 µM

## CC(C)c1cc(C(=O)c2cccc(C(F)(F)F)c2)cc(C(C)C)c1O [Compound 5, (3-(trifluoromethyl)phenyl)-(4-hydroxy-3,5-diisopropylphenyl)methanone]
[10]
  IC50: > 1000 µM

## CC(C)c1cc(C(=O)c2cc(F)cc(C(F)(F)F)c2)cc(C(C)C)c1O [Compound 6, (3-fluoro-5-(trifluoromethyl)phenyl)-(4-hydroxy-3,5-diisopropylphenyl)methanone]
[10]
  IC50: > 1000 µM

## CC(C)c1cc(C(=O)c2ccc(C(C)(C)C)cc2)cc(C(C)C)c1O [Compound 9, (4-tert-butylphenyl)-(4-hydroxy-3,5-diisopropylphenyl)methanone]
[10]
  IC50: > 1000 µM

## CC(C)c1cc(C(=O)c2ccc(I)cc2)cc(C(C)C)c1O [Compound 11, (4-hydroxy-3,5-diisopropylphenyl)-(4-iodophenyl)methanone]
[10]
  IC50: > 1000 µM
GABAA Cl channel [3]; [12]
  Kd: 0.36 µM
Rats [4]
  toxicity compared with 2,6-diisopropyl phenol: did not have toxicity above that of 2,6-diisopropyl phenol
  duration of anesthesia (time to recovery of righting reflex): 86 min

## CC(C)c1cc(C(=O)c2ccc(C#N)cc2)cc(C(C)C)c1O [Compound 13, (4-cyanophenyl)-(4-hydroxy-3,5-diisopropylphenyl)methanone]
[10]
  IC50: > 1000 µM

## CC(C)c1cc(C(=O)c2ccc(C(F)(F)F)nc2)cc(C(C)C)c1O [Compound 14, (6-(trifluoromethyl)pyridin-3-yl)-(4-hydroxy-3,5-diisopropylphenyl)methanone]
[10]
  IC50: > 1000 µM

## CC(C)c1cc(C(O)c2ccc(C(F)(F)F)cc2)cc(C(C)C)c1O (stereo not drawn) [Compound 20, 4-((4-(trifluoromethyl)phenyl)(hydroxy)methyl)-2,6-diisopropylphenol]
[10]
  IC50: 28 µM
